This passage reports IC50 results from ChEMBL document CHEMBL4364293, “Design, Synthesis, and Structure-Activity Relationship of 7-Propanamide Benzoxaboroles as Potent Anticancer Agents” (J Med Chem, 2019).

One assay concerns WI-38. In words: Cytotoxicity against human WI38 cells after 72 hrs by MTT assay. In kind it is cell-based. The following applies: WI-38, 72 h. In general terms: Tetrazolium dyes change colour on reduction, which living cells bring about.
For the next assay, the system named is SK-OV-3. In words: Antiproliferative activity against human SKOV3 cells after 72 hrs by MTT assay. In kind it is functional, cell-based. The following applies: SK-OV-3, 72 h.
In a further assay the test system is HCT-116. Description: Antiproliferative activity against human HCT116 cells after 72 hrs by MTT assay. In kind it is functional, cell-based. The following applies: HCT-116, 72 h.
For another assay, the system named is MDA-MB-231. Description: Antiproliferative activity against human MDA-MB-231 cells after 72 hrs by MTT assay. In kind it is functional, cell-based. To be noted: MDA-MB-231, 72 h.

What is called IC50 is the point on the concentration scale where inhibition reaches its midpoint. Read a high IC50 as weaker potency. For the compound `CSc1cccc(-c2cccc(NC(=O)CCc3cccc4c3B(O)OC4)c2)c1`, the IC50 in the assay on WI-38 worked out at 2 µM; in the assay on SK-OV-3 it was 0.15 µM; with HCT-116, 0.11 µM; with MDA-MB-231 it was 0.15 µM.

As to `O=C(CCc1cccc2c1C(O)OC2)Nc1ccccc1` (stereo unspecified), the IC50 turned out to be 42 µM with WI-38, 78 µM in the assay with SK-OV-3, 22 µM in the assay with HCT-116 and 12 µM in the assay on MDA-MB-231.

`O=C(CCc1cccc2c1B(O)OC2)Nc1cccc(-c2ccccc2)c1`: the IC50 was 12 µM in the assay with WI-38, 0.25 µM in the assay with SK-OV-3, 0.89 µM in the assay with HCT-116 and 0.22 µM in the assay with MDA-MB-231.

As for `COc1ccc(NC(=O)CCc2cccc3c2B(O)OC3)cc1`, the IC50 in the assay with WI-38 is > 100 µM; in the assay with SK-OV-3, 0.9 µM; in the assay on HCT-116, 1.7 µM; in the assay on MDA-MB-231, 0.85 µM.

For `CC(C)c1cccc(NC(=O)CCc2cccc3c2B(O)OC3)c1`, the IC50 in the assay with WI-38 was determined as 22 µM; with SK-OV-3 it was 0.51 µM; in the assay on HCT-116, 1.6 µM; in the assay on MDA-MB-231, 1.6 µM.

`O=C(O)CCc1cccc2c1B(O)OC2`: the IC50 in the assay on WI-38, in the assay with SK-OV-3, in the assay with HCT-116 and in the assay with MDA-MB-231 was > 100 µM throughout.

With `O=C(/C=C/c1cccc2c1B(O)OC2)Nc1ccccc1`, the IC50 in the assay with WI-38, with SK-OV-3, with HCT-116 and with MDA-MB-231 was > 100 µM throughout.

Consider `O=C(CCc1cccc2c1B(O)OC2)Nc1cccc2ccccc12`, for which the IC50 in the assay on WI-38 is 1.2 µM; in the assay with SK-OV-3 it was 0.17 µM; in the assay with HCT-116, 0.2 µM; in the assay with MDA-MB-231, 0.15 µM.

In the case of `CC(C)(C)OC(=O)NCc1ccc(NC(=O)CCc2cccc3c2B(O)OC3)cc1`, the IC50 in the assay on WI-38 turned out to be 4.8 µM; in the assay on SK-OV-3, 2 µM; in the assay with HCT-116, 2.3 µM; in the assay on MDA-MB-231, 1.3 µM.

Consider `O=C(CCc1cccc2c1B(O)OC2)Nc1cccc(-c2cccc(F)c2)c1`, for which the IC50 in the assay with WI-38 is 37 µM; in the assay with SK-OV-3 it was 0.48 µM; in the assay with HCT-116, 0.46 µM; in the assay on MDA-MB-231, 0.57 µM.

In the case of `COc1cccc(-c2cccc(NC(=O)CCc3ccc4c(c3)COB4O)c2)c1`, the IC50 was > 100 µM in the assay with WI-38, > 100 µM in the assay with SK-OV-3, 81 µM in the assay with HCT-116 and 90 µM in the assay with MDA-MB-231.

`O=C(CCc1ccccc1)Nc1ccccc1`: the IC50 in the assay on WI-38, in the assay on SK-OV-3, in the assay with HCT-116 and with MDA-MB-231 was > 100 µM in each case.

In the case of `O=C(CCc1cccc2c1B(O)OC2)Nc1ccc(I)cc1`, the IC50 came out at 49 µM in the assay with WI-38, 51 µM in the assay on SK-OV-3, 50 µM in the assay on HCT-116 and 33 µM in the assay with MDA-MB-231.

Take `OB1OCc2ccccc21` [BENZOXABOROLE]: the IC50 with WI-38 was 58 µM; in the assay on SK-OV-3 it was > 100 µM; in the assay on HCT-116, > 100 µM; in the assay on MDA-MB-231, > 100 µM.

For `CCNC(=O)CCc1cccc2c1B(O)OC2`, the IC50 in the assay on WI-38, in the assay with SK-OV-3, in the assay on HCT-116 and in the assay with MDA-MB-231 was > 100 µM in each case.

For the compound `Cc1cc(C)c(NC(=O)CCc2cccc3c2B(O)OC3)c(C)c1`, the IC50 with WI-38 was determined as 74 µM; in the assay on SK-OV-3, 19 µM; in the assay on HCT-116, 64 µM; in the assay with MDA-MB-231, 71 µM.

For the compound `O=C(CCc1cccc2c1B(O)OC2)NCCc1ccccc1`, the IC50 in the assay on WI-38, in the assay on SK-OV-3, with HCT-116 and in the assay with MDA-MB-231 was > 100 µM in each case.

Turning to `O=C(CCc1cccc2c1B(O)OC2)Nc1ccc(Br)cc1`, the IC50 in the assay on WI-38 stood at 42 µM; in the assay on SK-OV-3, 9.2 µM; in the assay on HCT-116, 46 µM; in the assay with MDA-MB-231, 5.3 µM.

Take `N#Cc1ccc(-c2cccc(NC(=O)CCc3cccc4c3B(O)OC4)c2)cc1`: the IC50 was determined as 12 µM in the assay with WI-38, 0.34 µM in the assay on SK-OV-3, 0.41 µM in the assay on HCT-116 and 0.38 µM in the assay on MDA-MB-231.
